Earlier results on 1 compound are cited in patent US10029116B2, “Method for the treatment of acne” (DUSA PHARMACEUTICALS, INC., priority 2012, dated 2018).

One data set concerns protoporphyrin IX. Conditions: mouse skin.
Data set [1] concerns protoporphyrin IX in acne lesions.

Take `NCC(=O)CCC(=O)O` [ALA, aminolevulinic acid]: in the data set on protoporphyrin IX, the “time for protoporphyrin levels to return to near pretreatment baseline” value is “about 18 hours” and the “time to peak protoporphyrin IX concentration” value is on record as “about six”. Moreover, in data set [1] (no occlusive covering), the “time by which the ability of light to excite protoporphyrin IX in acne lesions disappeared” value is at most 24 h. Moreover, the “persistence of the ability of light to excite protoporphyrin IX in skin having acne lesions” value in data set [1] (occlusive covering placed over the skin) was at most 24 h.
